The subject of the assay is modified version of the GPR119 receptor (94% identity to human receptor). The assay can be described thus: cAMP production assay (LANCE cAMP kit, TR-FRET) in HEK-293 cells. In kind it is cell-based. The note with it: for cAMP production in HEK-293 cells: HEK-293 cells stably expressing modified GPR119, test compounds 0.2 nM to 10 μM, one-hour incubation; for Fold over baseline: increase in cAMP relative to basal levels, agonist activity if 1.5-fold or greater. An outline of the steps:
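Doxycycline-induced HEK-293 cells expressing modified GPR119 exposed to compounds (0.2 nM to 10 μM, 0.5% DMSO) for one hour at ambient temperature in HBSS with HEPES and BSA. cAMP measured by TR-FRET competition and interpolated from a standard curve; agonism defined as ≥1.5-fold over basal.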
On the technique in general: Changes in cAMP serve as a functional read-out for many G protein-coupled receptors.

The structures appear in SMILES notation. Structures can show the parent of a compound that is named as a salt.

Consider `CS(=O)(=O)c1cc(F)c(O[C@H]2CCN(C3CCN(c4cnc(C(F)(F)F)s4)CC3)C2=O)cc1F` [Example 98, (S)-3-(2,5-difluoro-4-(methylsulfonyl)phenoxy)-1-(1-(2-(trifluoromethyl)thiazol-5-yl)piperidin-4-yl)pyrrolidin-2-one], for which the “cAMP production in HEK-293 cells” value came out at 23.7 nmol and the Fold over baseline turned out to be 5.4.

For the compound `CC(C)c1nsc(N2CCC(N3CCC(Oc4ccc(C(=O)N(C)CCN(C)C)cc4F)C3=O)CC2)n1` (stereo not shown) [Example 78, N-(2-(dimethylamino)ethyl)-3-fluoro-4-(1-(1-(3-isopropyl-1,2,4-thiadiazol-5-yl)piperidin-4-yl)-2-oxopyrrolidin-3-yloxy)-N-methylbenzamide], the “cAMP production in HEK-293 cells” value was found to be 5.0 nmol and the Fold over baseline stood at 1.6.

Turning to `CC(C)c1nsc(N2CCC(N3CCC(Oc4ccc(C(=O)N(C)CCN)cc4F)C3=O)CC2)n1` (stereo not shown) [Example 80, N-(2-aminoethyl)-3-fluoro-4-(1-(1-(3-isopropyl-1,2,4-thiadiazol-5-yl)piperidin-4-yl)-2-oxopyrrolidin-3-yloxy)-N-methylbenzamide], the “cAMP production in HEK-293 cells” value was 16.1 nmol and the Fold over baseline amounted to 2.8.

For `CC(C)c1nsc(N2CCC(N3CCC[C@H](Nc4ccc(S(C)(=O)=O)cc4F)C3=O)CC2)n1` [Example 27, (S)-3-(2-fluoro-4-(methylsulfonyl)phenylamino)-1′-(3-isopropyl-1,2,4-thiadiazol-5-yl)-[1,4′-bipiperidin]-2-one], the “cAMP production in HEK-293 cells” value was 17.5 nmol and the Fold over baseline is 3.0.

Regarding `CC(C)c1nsc(N2CCC(N3CCC(Oc4ccc(-n5cnnn5)cc4)C3=O)CC2)n1` (stereo not shown) [Example 84, 3-(4-(1H-tetrazol-1-yl)phenoxy)-1-(1-(3-isopropyl-1,2,4-thiadiazol-5-yl)piperidin-4-yl)pyrrolidin-2-one], the “cAMP production in HEK-293 cells” value stood at 18.8 nmol and the Fold over baseline is given as 4.2.

As for `CC(C)c1nsc(N2CCC(N3CCC(Oc4ccc(-n5cnnn5)nc4)C3=O)CC2)n1` (stereo not shown) [Example 82, 3-(6-(1H-tetrazol-1-yl)pyridin-3-yloxy)-1-(1-(3-isopropyl-1,2,4-thiadiazol-5-yl)piperidin-4-yl)pyrrolidin-2-one], the “cAMP production in HEK-293 cells” value stood at 12.8 nmol and the Fold over baseline amounted to 2.4.

Consider `CC(C)Cc1nsc(N2CCC(N3CCC(Oc4cc(F)c(S(C)(=O)=O)cc4F)C3=O)CC2)n1` (stereo not shown) [Example 49, 3-(2,5-difluoro-4-(methylsulfonyl)phenoxy)-1-(1-(3-isobutyl-1,2,4-thiadiazol-5-yl)piperidin-4-yl)pyrrolidin-2-one trifluoroacetate], for which the “cAMP production in HEK-293 cells” value is 15.4 nmol and the Fold over baseline is given as 2.8.

On to `CC(C)c1nsc(N2CCC(N3CC[C@H](Nc4ccc(Br)cn4)C3=O)CC2)n1` [Example 15, (S)-3-(5-Bromopyridin-2-ylamino)-1-(1-(3-isopropyl-1,2,4-thiadiazol-5-yl)piperidin-4-yl)pyrrolidin-2-one], for which the “cAMP production in HEK-293 cells” value is 11.4 nmol and the Fold over baseline was 2.7.

Consider `Cc1ncccc1-c1nsc(N2CCC(N3CC[C@H](Oc4ccc(S(C)(=O)=O)cc4F)C3=O)CC2)n1` [Example 71, (S)-3-(2-fluoro-4-(methylsulfonyl)phenoxy)-1-(1-(3-(2-methylpyridin-3-yl)-1,2,4-thiadiazol-5-yl)piperidin-4-yl)pyrrolidin-2-one], for which the “cAMP production in HEK-293 cells” value stood at 5.9 nmol and the Fold over baseline is reported as 2.1.

Regarding `CS(=O)(=O)c1ccc(O[C@H]2CCN(C3CCN(c4nc(Br)ns4)CC3)C2=O)c(F)c1` [Example 69, (S)-1-(1-(3-bromo-1,2,4-thiadiazol-5-yl)piperidin-4-yl)-3-(2-fluoro-4-(methylsulfonyl)phenoxy)pyrrolidin-2-one], the “cAMP production in HEK-293 cells” value came out at 10.6 nmol and the Fold over baseline was determined as 2.1.

In the case of `CC(C)c1nsc(N2CCC(N3CC[C@H](Oc4ccc(S(C)(=O)=O)c(F)c4)C3=O)CC2)n1` [Example 53, (S)-3-(3-fluoro-4-(methylsulfonyl)phenoxy)-1-(1-(3-isopropyl-1,2,4-thiadiazol-5-yl)piperidin-4-yl)pyrrolidin-2-one], the “cAMP production in HEK-293 cells” value stood at 24.5 nmol and the Fold over baseline turned out to be 4.9.

`CC(C)c1nsc(N2CCC(N3CCCC(Oc4cc(F)c(S(C)(=O)=O)cc4F)C3=O)CC2)n1` (stereo not shown) [Example 85, 3-(2,5-Difluoro-4-(methylsulfonyl)phenoxy)-1′-(3-isopropyl-1,2,4-thiadiazol-5-yl)-[1,4′-bipiperidin]-2-one]: the “cAMP production in HEK-293 cells” value amounted to 16.2 nmol and the Fold over baseline worked out at 3.8.

For the compound `CC(C)c1nsc(N2CCC(N3CC[C@H](Nc4ccc(S(C)(=O)=O)cc4Cl)C3=O)CC2)n1` [Example 12, (S)-3-(2-chloro-4-(methylsulfonyl)phenylamino)-1-(1-(3-isopropyl-1,2,4-thiadiazol-5-yl)piperidin-4-yl)pyrrolidin-2-one], the “cAMP production in HEK-293 cells” value came to 17.5 nmol and the Fold over baseline was 3.9.

Take `CCS(=O)(=O)c1ccc(OC2CCN(C3CCN(c4nc(CC(C)C)ns4)CC3)C2=O)c(F)c1` (stereo not shown) [Example 68, 3-(4-(ethylsulfonyl)-2-fluorophenoxy)-1-(1-(3-isobutyl-1,2,4-thiadiazol-5-yl)piperidin-4-yl)pyrrolidin-2-one]: the “cAMP production in HEK-293 cells” value is 14.5 nmol and the Fold over baseline is recorded as 3.1.

For `CC(C)c1nsc(N2CCC(N3CC[C@@H](Nc4ccc(S(=O)(=O)C5CC5)cc4F)C3=O)CC2)n1` [Example 7, (R)-3-(4-(cyclopropylsulfonyl)-2-fluorophenylamino)-1-(1-(3-isopropyl-1,2,4-thiadiazol-5-yl)piperidin-4-yl)pyrrolidin-2-one], the “cAMP production in HEK-293 cells” value came to 23.8 nmol and the Fold over baseline was determined as 3.4.

Take `CS(=O)(=O)c1ccc(N[C@H]2CCCN(C3CCN(c4nc(C(F)(F)F)ns4)CC3)C2=O)c(F)c1` [Example 87, (S)-3-(2-fluoro-4-(methylsulfonyl)phenylamino)-1′-(3-(trifluoromethyl)-1,2,4-thiadiazol-5-yl)-[1,4′-bipiperidin]-2-one]: the “cAMP production in HEK-293 cells” value came to 13.6 nmol and the Fold over baseline was found to be 2.1.

With `CC(C)c1nsc(N2CCC(N3CCC(Oc4ccc(-c5nnn(C)n5)cc4)C3=O)CC2)n1` (stereo not shown) [Example 83, 1-(1-(3-isopropyl-1,2,4-thiadiazol-5-yl)piperidin-4-yl)-3-(4-(2-methyl-2H-tetrazol-5-yl)phenoxy)pyrrolidin-2-one], the “cAMP production in HEK-293 cells” value worked out at 14.9 nmol and the Fold over baseline amounted to 2.5.

Regarding `CC(C)(C)c1nsc(N2CCC(N3CC[C@H](Oc4c(F)cc(S(C)(=O)=O)cc4F)C3=O)CC2)n1` [Example 36, (S)-1-(1-(3-tert-butyl-1,2,4-thiadiazol-5-yl)piperidin-4-yl)-3-(2,6-difluoro-4-(methylsulfonyl)phenoxy) pyrrolidin-2-one], the “cAMP production in HEK-293 cells” value is 23.2 nmol and the Fold over baseline turned out to be 4.1.

Take `CS(=O)(=O)c1ccc(O[C@H]2CCN(C3CCN(c4nc(-n5cccn5)ns4)CC3)C2=O)c(F)c1` [Example 42, (S)-1-(1-(3-(1H-pyrazol-1-yl)-1,2,4-thiadiazol-5-yl)piperidin-4-yl)-3-(2-fluoro-4-(methylsulfonyl)phenoxy)pyrrolidin-2-one]: the “cAMP production in HEK-293 cells” value was 12.0 nmol and the Fold over baseline turned out to be 2.5.

In the case of `Cc1ncccc1Oc1nsc(N2CCC(N3CC[C@H](Oc4ccc(S(C)(=O)=O)cc4F)C3=O)CC2)n1` [Example 76, (S)-3-(2-fluoro-4-(methylsulfonyl)phenoxy)-1-(1-(3-(2-methylpyridin-3-yloxy)-1,2,4-thiadiazol-5-yl)piperidin-4-yl)pyrrolidin-2-one], the “cAMP production in HEK-293 cells” value was found to be 5.7 nmol and the Fold over baseline is given as 2.5.

The values are drawn from patent US20140256756A1, “PIPERIDINYL-SUBSTITUTED LACTAMS AS GPR119 MODULATORS” (Array BioPharma Inc., priority 2011, published 2014).
